“Also recorded” adds a separate entry of the source.
Experiments:
[1] = detectable pH range of the fluorescent pH indicator; taken from probes.invitrogen.com handbook table; cited from earlier work
[2] = fluorescence intensity of ageladine A as a function of the pH of the solution; assay type: physicochemical
Text: The optical measurement method according to an embodiment of the present invention includes an alternative fluorescent pH indicator based on ageladine A. Ageladine A is a known natural marine substance in the form of a pyrrole-imidazole alkaloid which has heretofore been used exclusively for medical purposes. Ageladine A can be obtained both from marine sponges and produced synthetically. It is therefore readily possible, by means of the total syntheses described, to prepare large quantities of ageladine A without having to have recourse to marine sponges. […] When using ageladine A as a fluorescent pH indicator, pH changes of the medium to be investigated between pH4 and pH9 can be reliably optically indicated by means of a changeable fluorescence intensity in such a manner that the emitted fluorescence intensity increases as the pH falls. […] Advantageously, samples that have been taken (in vitro), but also living cells, tissue and entire organisms (in vivo) can be incubated with ageladine A as fluorescent pH indicator and stained in this manner by means of the fluorescence in the green range. This enables measurements of the pH in vivo and in vitro in a wide range and thus the detection of acidic tissue in organisms due to its fluorescence properties. The fluorescence in the green range increases markedly as the pH falls. […] The fluorescence intensity was measured at 510 nm. […]

PC-12 cells = assay: staining of cells with ageladine A and measurement of intracellular pH; assay type: cell-based, rat; details: PC-12 cells incubated with ageladine A, excitation 380 nm
Method: FIGS. 2A, 2B show images, at 400-times magnification, of cells (PC-12 cells, rat, deposited at DSMZ) incubated with ageladine A and stained by means of the same. Excitation took place using UV light with a wavelength of 380 nm.
The fluorescence ratio value (340 nm/380 nm) is plotted over time (time in s). The various pHs of the buffer solution are marked as parameters on the graph. It can clearly be recognized that the fluorescence emission follows the extracellular increase of the pH of the solution in a wide range (pH6.5 to pH3). The change of the intracellular pH is only a few tenths around pH7, as a result of which a very high measurement resolution of the pH indicator results.

[3] = system: shrimp (Palaemonetes argentinus); assay: in-vivo staining of a living organism with ageladine A
Text: The green curve (lowest straight curve) indicates fluorescence intensity values within the buffer solution outside of the shrimp, the red and blue curves (middle and upper curved curves) indicate fluorescence intensity values within the shrimp and thus, in a simple manner, easily recognizable and detectable acidic constituents of the shrimp.

SMILES | PH RANGE [1] | stability of the stainings ([2]; cells, tissue, organisms incubated with ageladine A) | stability of fluorescence under UV irradiation ([2]; despite UV irradiation) | staining of cells (PC-12 cells) | penetration into tissue ([3]; intact, living organisms, on account of lipophilic structure (bromination)) | in-vivo staining of tissue ([3]; shrimp incubated with ageladine A, irradiated with UV light)
O=S(=O)([O-])c1cc(O)c2ccc3c(S(=O)(=O)[O-])cc(S(=O)(=O)[O-])c4ccc1c2c34.[Na+].[Na+].[Na+] [HPTS (pyranine), pyranine] | 7.0-8.0 |  |  |  |  | 
O=c1c2cccc3c(NCCN4CCOCC4)ccc(c32)c2nc3ccccc3n12 [LysoSensor Green DND-189] | 4.5-6.0 |  |  |  |  | 
Nc1nc2ccnc(-c3cc(Br)c(Br)[nH]3)c2[nH]1 [ageladine A] |  | stable over hours to days; also recorded: last for at least a plurality of days | stable for hours | stained | penetrates very quickly and far into the tissue | acidic structures (mouth-digestive region) in the shrimp were stained

From patent publication US8198098B2, “Optical measurement method for determining the pH of a medium using ageladine A as a fluorescent pH indicator” (Stiftung Alfred-Wegener-Institut fuer Polar-und …, priority 2007, dated 2012)
